Assay results from US20040029823A1, “Antisense oligonucleotide compositions and methods for the modulation of JNK proteins” (priority 1997, published 2004).
“And” between values parts separate entries of the source, which are not always exact repeats. Equal entries are not always repeated. Where two headings read alike, the source gives them in different places. Where a SMILES comes first, the peptide text is derived from it. The star is where a group is joined. e = 2'-O-(2-methoxyethyl) (MOE); [5mC] = 5-methylcytosine; Cbz = O=C(OCc1ccccc1)*; d = 2'-deoxy (DNA); CH2F = FC*

Tests used:
[1] = system: JNK1 mRNA; experiment: Northern assay of JNK1 mRNA expression in A549 cells; format: cell-based, human; conditions: for Normalized % Control / RNA % Control / RNA % Inhibition: JNK1 mRNA; for Normalized % Control: chemically modified oligonucleotides; for RNA % Control / RNA % Inhibition: 300 nM for 20 hours then 200 nM for 4 hours
Procedure: (§1) In order to evaluate the activity of potential JNK-modulating oligonucleotides, human lung carcinoma cell line A549 (American Type Culture Collection, Rockville, Md. No. ATCC CCL-185) cells or other cell lines as indicated in the Examples, were grown and treated with oligonucleotides or control solutions as detailed below. After harvesting, cellular extracts were prepared and examined for specific JNK mRNA levels or JNK protein levels (i.e., Northern or Western assays, respectively). In all cases, “% expression” refers to the amount of JNK-specific signal in an oligonucleotide-treated cell relative to an untreated cell (or a cell treated with a control solution that lacks oligonucleotide), and “% inhibition” is calculated as
100%−% Expression =% Inhibition.
Northern Assays: The mRNA expression of each JNK protein was determined by using a nucleic acid probe specifically hybridizable thereto. Nucleic acid probes specific for JNK1, JNK2 and JNK3 are described in Examples 3, 4 and 5, respectively. The probes were radiolabelled by means well known in the art (see, e.g., Short Protocols in Molecular Biology, 2nd Ed., Ausubel et al., Eds., John Wiley & Sons, New York, 1992, pages 3-11 to 2-3-44 and 4-17 to 4-18; Ruth, Chapter 6 In: Methods in Molecular Biology, Vol. 26: Protocols for Oligonucleotide Conjugates, Agrawal, ed., Humana Press Inc., Totowa, N.J., 1994, pages 167-185; and Chapter 10 In: Molecular Cloning: A Laboratory Manual, 2nd Ed., Sambrook et al., Eds., pages 10.1-10.70). The blots were stripped and reprobed with a ^32P-labeled glyceraldehyde 3-phosphate dehydrogenase (G3PDH) probe (Clontech Laboratories, Inc., Palo Alto, Calif.) in order to confirm equal loading of RNA and to allow the levels of JNK transcripts to be normalized with regard to the G3PDH signals.
A549 cells were grown in T-75 flasks until 80-90% confluent. At this time, the cells were washed twice with 10 mL of media (DMEM), followed by the addition of 5 mL of DMEM containing 20 μg/mL of LIPOFECTIN™ (i.e., 1:1 (w/w) DOTMA/DOPE, Life Technologies, Gaithersburg, Md.; DOTMA=N-[1-(2,3-dioleyoxy)propyl]-N,N,N-trimethylammonium chloride; DOPE=dioleoyl phosphatidylethanolamine). The oligonucleotides were added from a 10 μM stock solution to a final concentration of 400 nM, and the two solutions were mixed by swirling the flasks. As a control, cells were treated with LIPOFECTIN™ without oligonucleotide under the same conditions and for the same times as the oligonucleotide-treated samples. After 4 hours at 37° C., the medium was replaced with fresh DMEM containing 10% serum. The cells were allowed to recover for 18 hours. Total cellular RNA was then extracted in guanidinium, subject to gel electrophoresis and transferred to a filter according to techniques known in the art (see, e.g., Chapter 7 In: Molecular Cloning: A Laboratory Manual, 2nd Ed., Sambrook et al., Eds., pages 7.1-7.87, and Short Protocols in Molecular Biology, 2nd Ed., Ausubel et al., Eds., John Wiley & Sons, New York, 1992, pages 2-24 to 2-30 and 4-14 to 4-29). Filters were typically hybridized overnight to a probe specific for the particular JNK gene of interest in hybridization buffer (25 mM KPO4, pH 7.4; 5×SSC; 5× Denhardt's solution, 100 μg/ml Salmon sperm DNA and 50% formamide) (Alahari et al., Nucl. Acids Res., 1993, 21, 4079). This was followed by two washes with 1×SSC, 0.1% SDS and two washes with 0.25×SSC, 0.1% SDS. Hybridizing bands were visualized by exposure to X-OMAT AR film and quantitated using a PHOSPHORIMAGER™ essentially according to the manufacturer's instructions (Molecular Dynamics, Sunnyvale, Calif.)
B. JNK1-specific probes: In initial screenings of a set of oligonucleotides derived from the JNK1 sequence (Table 2) for biological activity, a cDNA clone of JNK1 (Derijard et al., Cell, 1994, 76, 1025) was radiolabeled and used as a JNK1-specific probe in Northern blots. […]

[2] = system: MDA-MB-231 tumors; experiment: MDA-MB-231 human breast adenocarcinoma tumors in nude mice; format: in vivo; conditions: MDA-MB-231 tumors, 25 mg/kg intravenous once daily
Excerpt: Approximately 5×10^6 breast adenocarcinoma cells (cell line MDA-MB-231; American Type Culture Collection, Richmond, Va., No. ATCC HTB-26) were implanted subcutaneously in the right inner thigh of nude mice (n=6 for each of three sets of mice). Oligonucleotides ISIS 15346 (JNK1, SEQ ID NO: 16) and 15353 (JNK2, SEQ ID NO: 31) were suspended in saline and administered once daily to two sets of mice on the first day the tumor volume was about […]. A saline-only (0.9% NaCl) solution was given to a third set of animals as a control. Oligonucleotides were given by intravenous injection at a dosage of 25 mg/kg. Tumor size was measured and tumor volume was calculated on days 12, 19, 26 and 33 following tumor cell inoculation.

[3] = system: JNK1 protein; experiment: Western assay of JNK1 protein levels in A549 cells; format: cell-based, human; conditions: 300 nM for 20 hours then 200 nM for 4 hours
Procedure: as §1
Western Assays: A549 cells were grown and treated with oligonucleotides as described above. Cells were lysed, and protein extracts were electrophoresed (SDS-PAGE) and transferred to nitrocellulose filters by means known in the art (see, e.g., Chapter 18 In: Molecular Cloning: A Laboratory Manual, 2nd Ed., Sambrook et al., Eds., pages 18.34, 18.47-18.54 and 18.60-18.75)). The amount of each JNK protein was determined by using a primary antibody that specifically recognizes the appropriate JNK protein. The primary antibodies specific for each JNK protein are described in the appropriate Examples. The primary antibodies were detected by means well known in the art (see, e.g., Short Protocols in Molecular Biology, 2nd Ed., Ausubel et al., Eds., John Wiley & Sons, New York, 1992, pages 10-33 to 10-35; and Chapter 18 In: Molecular Cloning: A Laboratory Manual, 2nd Ed., Sambrook et al., Eds., pages 18.1-18.75 and 18.86-18.88) and quantitated using a PHOSPHORIMAGER™ essentially according to the manufacturer's instructions (Molecular Dynamics, Sunnyvale, Calif.).
F. Western Assays: In order to assess the effect of oligonucleotides targeted to JNK1 mRNAs on JNK1 protein levels, Western assays were performed essentially as described above in Example 2, with the following exception(s) and/or modification(s). A primary antibody that specifically binds to JNK1 (catalog No. sc-474-G) was purchased from Santa Cruz Biotechnology, Inc. (Santa Cruz, Calif.; other JNK1-specific antibodies are available from StressGen Biotechnologies, Inc., Victoria, BC, Canada; and Research Diagnostics, Inc., Flanders, N.J.). In this experiment, cells were grown and treated with oligonucleotide at 300 nM for the initial 20 hours and then at 200 nM for 4 hours. At t=48 h, aliquots were removed for Northern and Western analyses, and fresh media was added to the cells. Aliquots for analysis were also taken at t=72 h. The samples from t=48 h and t=72 h were analyzed using the Northern and Western assays described above.

[4] = system: HUVEC; experiment: Apoptosis in HUVEC (percent hypodiploid cells, flow cytometry); format: cell-based, human; conditions: for effect on JNK2 oligonucleotide-induced cell death (apoptosis): HUVEC treated with JNK2 oligonucleotide plus the inhibitor

15346 (antisense CTCTCTGTAGGCCCGCTTGG; sugars from the 5' end e5 d9 e6, [5mC] at 1, 3, 5, 16, all phosphorothioate, methylation of C not given here) [compound 15346]
Normalized % Control ([1]; dose 100 nM): 22.6%
Normalized % Control ([1]; dose 400 nM): 11.0%
RNA % Control ([1]; t = 48 h): 4.3%
RNA % Control ([1]; t = 72 h): 10.6%
inhibition of JNK1 mRNA expression ([1]; chemically modified derivatives of ISIS 12539, 400 nM (Table 5)): at least 88%
tumor growth compared to the saline control [2]: inhibited tumor growth
Protein % Control ([3]; t = 48 h): 42.7%
Protein % Control ([3]; t = 72 h): 25.7%

15351 (antisense CTCTCTGTAGGCCCGCTTGG; sugars from the 5' end e11 d9, [5mC] at 1, 3, 5, linkages o10 s9 (s phosphorothioate, o phosphodiester), methylation of C not given here) [compound 15351]
Normalized % Control ([1]; dose 100 nM): 45.1%
Normalized % Control ([1]; dose 400 nM): 39.8%
RNA % Control ([1]; t = 48 h): 26.9%
RNA % Inhibition ([1]; t = 48 h): 73.1%
RNA % Control ([1]; t = 72 h): 46.1%
RNA % Inhibition ([1]; t = 72 h): 53.9%
Protein % Control ([3]; t = 48 h): 52.4%
Protein % Control ([3]; t = 72 h): 37.0%

C[C@@H]1C[C@@H]([C@H](O)CC2CC(=O)NC(=O)C2)C(=O)[C@@H](C)C1 [cyclohexamide, reference compound]
effect on JNK2 oligonucleotide-induced cell death (apoptosis) [4]: no effect

COC(=O)C[C@H](NC(=O)[C@H](C)NC(=O)[C@@H](NC(=O)OCc1ccccc1)C(C)C)C(=O)CF [z-FAD.fmk, z-VAD.fmk, reference compound] (Cbz-Val-Ala-Asp(OMe)-CH2F)
effect on JNK2 oligonucleotide-induced cell death (apoptosis) [4]: decreased

CTTTCCGTTGGACCCCTGGG (phosphorothioate, 2'-MOE gapmer, further chemistry not given here) [ISIS 18076, scrambled control for ISIS 15346; 2′-methoxyethoxy gapmer, phosphorothioate throughout, reference compound]
percent hypodiploid cells (a measure of apoptosis) [4]: 8% and 10% and 11%

C^ST^SC^ST^SC^ST^SG^ST^SA^SG^SG^SC^SC^SC^SG^SC^ST^ST^SG^SG (antisense CTCTCTGTAGGCCCGCTTGG; DNA, all phosphorothioate, methylation of C not given here) [ISIS 15346, JNK1 gapmer: P═S, 2′-MOE wings; P═S, 2′-deoxy core]
percent hypodiploid cells (a measure of apoptosis) ([4]; HUVEC, Oligo + Cyclohexamide): 8%
percent hypodiploid cells (a measure of apoptosis) ([4]; HUVEC, Oligo + TNFa (10 ng/ml)): 14%
percent hypodiploid cells (a measure of apoptosis) ([4]; HUVEC, Oligo + z-VAD.fmk): 5%
percent hypodiploid cells (a measure of apoptosis) ([4]; HUVEC, Oligo alone): 13%

GTGCGCGCGAGCCCGAAATC (phosphorothioate, 2'-MOE gapmer, further chemistry not given here) [ISIS 18078, scrambled control for ISIS 15353; 2′-methoxyethoxy gapmer, phosphorothioate throughout, reference compound]
percent hypodiploid cells (a measure of apoptosis) [4]: 11% and 12% and 9%
